Data from patent publication US10640507B2, “PBD antibacterial agents” (KING'S COLLEGE LONDON, priority 2015, dated 2020).

Key:
[1] = tested on: K. pneumonia - M6; experiment: Time kill kinetics; assay type: cell-based; settings: drug at 4×MIC
Method: 1. Grow bacteria overnight.
2. Subculture into an autoclaved conical flask containing 10 ml of TSB to an OD of 0.01 (˜1×10^7 Cfu/ml for KP-M6).
4. Take aliquots (100 μl) at timepoints (0, 1, 2, 4, 6, 24 hours) and carry out a serial dilution in PBS (to remove drug and to dilute bacteria to countable numbers).
5. Use the serial dilution to perform a Miles Misra—i.e. Add 3×10 μl spots of each dilution onto an agar plate. Incubate overnight and count colonies on spots in the morning.
6. Control: Subculture bacteria alongside samples but with no antibiotic added. Take aliquots from this at every time point (0, 1, 2, 4, 6, 24 hours) and perform Miles Misra on these too (as detailed in points 4 and 5 above).
7. After the first experiment, if the counts seen on Miles-Misra were zero, total viable counts were determined by spreading 200 μl in a streak down the centre of a TSB agar plate, waiting for the liquid to be absorbed and then spreading over the plate and checking for growth inhibition at the sight of the original streak.
8. The compound is considered bactericidal if the inoculum was reduced >3 log10 CFU/ml and bacteriostatic if inoculum was reduced by 0-3 log10 CFU/ml.
Three measurements were taken for each compound at each time point. These measurements were averaged and the standard deviation was also calculated.

[2] = tested on: resistant mutants of KP 13438; experiment: MIC following resistance development; assay type: cell-based, Klebsiella; settings: Klebsiella, OFKP13438, read-out: MIC of resistant mutants (in brackets)
Method: (§1) General Minimum Inhibitory Concentration (MIC) Protocol
(§2) 1. Grow up cultures of bacterial strains to be tested overnight.
(§3) 2. Dilute down overnight cultures to concentration of 1×10^6 bacteria/ml (OD0.01) in Tryptic soy broth (TSB).
(§4) 3. Add 100 μl of TSB media to column 2-column 12 in 96 well plate (keeping column 1 clear).
(§5) 4. Make up compound to a concentration of 64 μg/ml in water (or alternatively to twice the chosen maximum concentration to be tested).
(§6) 5. Add 100 μl of antibiotic solution to the 1st and 2nd columns.
(§7) 6. Using a multichannel pipette take 100 μl from the 2nd column wells and pipette into 3rd column wells and repeat down the 96 well plate (remembering to include controls i.e. uninfected media and media with no antibiotic).
(§8) 7. To each well (except uninfected control row H) add 100 μl of bacterially infected media at a concentration of 1×10^6/ml.
(§9) 8. This dilutes down the concentration of the antibiotic by half (top dose is therefore 32 μg/ml in column 1) and also gives you a starting bacterial concentration of 5×10^5/ml.
(§10) 9. Wrap plate with parafilm to prevent evaporation.
(§11) 10. Leave at desired temperature (37° C. unless specified elsewhere) for 20 hours.
(§12) 11. Next day check plates for growth and measure optical density (i.e. absorbance) at a wavelength of 600 nm (OD600).
(§13) An example of such a plate is shown in FIG. 1 where column A represents wells that receive the top dose 100 μl; column B represents wells that receive the top dose 100 μl+100 μl TSB; and column C represents wells that receive 100 μl TSB. Row H which is marked by a box labelled D represents a blank where the cells receive no bacteria.
(§14) The MIC of PP-A418 and colistin against the strains used in the time kill analysis of Example 31 following resistance development were measured. The MIC was measured using the general MIC protocol given above. The results are given in Table 14 below where the MIC values of resistant mutants are shown in the brackets.

[3] = tested on: resistant mutants of KP 16; experiment: MIC following resistance development; assay type: cell-based, Klebsiella; settings: Klebsiella, OFKP16, read-out: MIC of resistant mutants (in brackets)
Method: as §1, §2, §3, §4, §5, §6, §7, §8, §9, §10, §11, §12, §13, §14

[4] = tested on: resistant mutants of KP 13368; experiment: MIC following resistance development; assay type: cell-based, Klebsiella; settings: Klebsiella, OFKP13368, read-out: MIC of resistant mutants (in brackets)
Method: as §1, §2, §3, §4, §5, §6, §7, §8, §9, §10, §11, §12, §13, §14

COc1cc2c(cc1OCCCC(=O)Nc1cc(C(=O)Nc3ccc4sc(C(=O)N(C)C)cc4c3)n(C)c1)N=C[C@@H]1CCCN1C2=O [KMR-14-33, (S)—N-(2-(dimethylcarbamoyl)benzo[b]thiophen-5-yl)-4-(4-((7-methoxy-5-oxo-2,3,5,11a-tetrahydro-1H-benzo[e]pyrrolo[1,2-a][1,4]-diazepin-8-yl)oxy)butanamido)-1-methyl-1H-pyrrole-2-carboxamide]
Average (Log CFU/ml) ([1]; time-point 1 hours): 2667 CFU/ml
n = 1 (Log CFU/ml) ([1]; time-point 1 hours): 3000 CFU/ml
n = 2 (Log CFU/ml) ([1]; time-point 1 hours): 3000 CFU/ml
n = 3 (Log CFU/ml) ([1]; time-point 1 hours): 2000 CFU/ml
Average (Log CFU/ml) ([1]; time-point 2 hours): 0 CFU/ml
n = 2 (Log CFU/ml) ([1]; time-point 2 hours): 0 CFU/ml
n = 3 (Log CFU/ml) ([1]; time-point 2 hours): 0 CFU/ml
viable count ([1]; time-point 2 hours): 0 CFU/mL
Average (Log CFU/ml) ([1]; time-point 4 hours): 0 CFU/ml
n = 2 (Log CFU/ml) ([1]; time-point 4 hours): 0 CFU/ml
n = 3 (Log CFU/ml) ([1]; time-point 4 hours): 0 CFU/ml
viable count ([1]; time-point 4 hours): 0 CFU/mL
Average (Log CFU/ml) ([1]; time-point 6 hours): 0 CFU/ml
n = 2 (Log CFU/ml) ([1]; time-point 6 hours): 0 CFU/ml
n = 3 (Log CFU/ml) ([1]; time-point 6 hours): 0 CFU/ml
viable count ([1]; time-point 6 hours): 0 CFU/mL
Average (Log CFU/ml) ([1]; time-point 24 hours): 0 CFU/ml
n = 2 (Log CFU/ml) ([1]; time-point 24 hours): 0 CFU/ml
n = 3 (Log CFU/ml) ([1]; time-point 24 hours): 0 CFU/ml
viable count ([1]; time-point 24 hours): 0 CFU/mL

COc1cc2c(cc1OCCCC(=O)Nc1cc(C(=O)Nc3ccc4oc(C(=O)N5CCSCC5)cc4c3)n(C)c1)N=C[C@@H]1CCCN1C2=O [PP-A148, (S)-4-(4-((7-methoxy-5-oxo-2,3,5,11a-tetrahydro-1H-benzo-[e]pyrrolo[1,2-a][1,4]diazepin-8-yl)oxy)butanamido)-1-methyl-N-(2-(thiomorpholine-4-carbonyl)benzofuran-5-yl)-1H-pyrrole-2-carboxamide]
MIC [2]: 64 µg/mL
MIC [3]: 4 to 8 µg/mL
MIC [4]: > 128 µg/mL
